Test systems include BT-549; U-251; SF-539; SNB-19; DU-145; SNB-75; SK-MEL-2; UACC-62; Malme-3M; HCT-15; CCRF-CEM; Hs-578T; NCI-H23; CAKI-1; SK-MEL-5; A498; OVCAR-3; LOX IMVI; HCC 2998; OVCAR-4.
Holding throughout (test): NCI-60 cell line screen, 48 h

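Values below derive from 48-hour exposures of cells grown in 96-well plates, with endpoints linearly interpolated between the two concentrations bracketing the appropriate inhibition level. At the GI50, growth is halved.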 Active and inactive are the calls of the source. Rule as the data show it: active = GI50 up to about 1.1 µM and inactive = higher. A value given as a limit tells only on which side of the number the result lay.

As to `OCCCNc1[nH]cnc2nncc1-2`, the GI50 in the assay with BT-549 was > 100 µM (inactive); in the assay with U-251 it was > 100 µM (inactive); with SF-539 it was 41.1 µM (inactive); in the assay with SNB-19, > 100 µM (inactive); with DU-145, > 100 µM (inactive); in the assay on SNB-75, > 100 µM (inactive). The GI50 in the assay on SK-MEL-2 is > 100 µM (inactive); in the assay on UACC-62 it was > 100 µM (inactive); in the assay on Malme-3M, > 100 µM (inactive); in the assay on HCT-15, more than 100 µM; in the assay on CCRF-CEM, > 100 µM (inactive); in the assay on Hs-578T, > 100 µM (inactive). The GI50 in the assay on NCI-H23 was > 100 µM (inactive); with CAKI-1 it was 9.82 µM (inactive); in the assay on SK-MEL-5, > 100 µM (inactive); in the assay on A498, > 100 µM (inactive); in the assay on OVCAR-3, > 100 µM (inactive); in the assay on LOX IMVI, > 100 µM (inactive). The GI50 in the assay on HCC 2998 and in the assay with OVCAR-4 was > 100 µM (inactive) in each case.

For the compound `COc1ccc2c(c1)CCCC(Br)C2=O` (stereo not given), the GI50 in the assay with BT-549 was 2.55 µM (inactive); in the assay on U-251, 4.72 µM (inactive); in the assay with SF-539 it was 2.56 µM (inactive); with SNB-19, 8.18 µM (inactive); with DU-145, 15.1 µM (inactive); in the assay on SNB-75, 12.6 µM (inactive). Further, the GI50 in the assay with SK-MEL-2 was 1.24 µM (inactive); with UACC-62, 2.8 µM (inactive); in the assay on Malme-3M, 4.48 µM (inactive); in the assay with HCT-15 it was 0.929 µM; in the assay on CCRF-CEM it was 0.337 µM (active); with Hs-578T, 17.1 µM (inactive). The GI50 in the assay on NCI-H23 is 4.9 µM (inactive); in the assay with CAKI-1, 2.96 µM (inactive); with SK-MEL-5, 2.55 µM (inactive); with A498 it was 19.6 µM (inactive); in the assay with OVCAR-3, 9.08 µM (inactive); with LOX IMVI, 0.379 µM (active). Also, the GI50 is 7.66 µM (inactive) with HCC 2998 and 6.52 µM (inactive) in the assay on OVCAR-4.

On to `COc1cc2ccc(C(=O)NCCCNC(=O)c3ccc4cc(OC)c(OC)cc4c3)cc2cc1OC`, for which the GI50 with BT-549 is > 100 µM (inactive); with U-251, > 100 µM (inactive); in the assay on SF-539, 53.3 µM (inactive); in the assay with SNB-19, > 100 µM (inactive); with DU-145, > 100 µM (inactive); in the assay with SNB-75, 32.9 µM (inactive). The GI50 in the assay on SK-MEL-2 was > 100 µM (inactive); with UACC-62, > 100 µM (inactive); with Malme-3M it was > 100 µM (inactive); in the assay with HCT-15 it was more than 100 µM; in the assay with CCRF-CEM it was > 100 µM (inactive); in the assay on Hs-578T, 36.6 µM (inactive). The GI50 in the assay on NCI-H23, in the assay with CAKI-1, with SK-MEL-5, in the assay on A498, in the assay with OVCAR-3 and in the assay on LOX IMVI was > 100 µM (inactive) throughout. Further, the GI50 in the assay on HCC 2998 is > 100 µM (inactive); with OVCAR-4, 57.8 µM (inactive).

Consider `O=C[C@@H](CO)O[C@H](C=O)c1c[nH]c(=O)[nH]c1=O`, for which the GI50 in the assay on BT-549 is 79.1 µM (inactive); in the assay on U-251, 143 µM (inactive); in the assay with SF-539 it was 101 µM (inactive); in the assay with SNB-19, 129 µM (inactive); in the assay on DU-145, 100 µM (inactive); in the assay on SNB-75, 182 µM (inactive). Also, the GI50 is 100 µM (inactive) in the assay on SK-MEL-2; 72.8 µM (inactive) in the assay on UACC-62; 88.7 µM (inactive) in the assay with Malme-3M; 57.8 µM in the assay on HCT-15; 34.9 µM (inactive) in the assay with CCRF-CEM; 100 µM (inactive) in the assay with Hs-578T. The GI50 in the assay with NCI-H23 is 69.3 µM (inactive); in the assay with CAKI-1 it was 71.6 µM (inactive); with SK-MEL-5 it was 83.9 µM (inactive); in the assay on A498, 119 µM (inactive); in the assay with OVCAR-3, 68.4 µM (inactive); in the assay with LOX IMVI, 93.8 µM (inactive). In addition, the GI50 was 98.4 µM (inactive) with HCC 2998 and 83.9 µM (inactive) in the assay with OVCAR-4.

For the compound `O=C1c2cccnc2C(=O)c2c1nc1ccccc1c2-c1ccc2c3c(nc4ccccc42)C(=O)c2cccnc2-c13`, the GI50 with BT-549 was 2.46 µM (inactive); in the assay on U-251, 1.75 µM (inactive); with SF-539 it was 0.832 µM (active); with SNB-19, 1.84 µM (inactive); with DU-145, 0.359 µM (active); in the assay with SNB-75, 2.07 µM (inactive). Further, the GI50 in the assay on SK-MEL-2 is 2.1 µM (inactive); in the assay on UACC-62 it was 1.73 µM (inactive); with Malme-3M it was 1.04 µM (active); in the assay with HCT-15, 0.195 µM; in the assay with CCRF-CEM, 2.07 µM (inactive); with Hs-578T, 1.81 µM (inactive). The GI50 in the assay on NCI-H23 is 1.06 µM (active); in the assay on CAKI-1, 1.75 µM (inactive); in the assay with SK-MEL-5, 0.467 µM (active); in the assay with A498, 2.69 µM (inactive); with OVCAR-3, 0.244 µM (active); in the assay with LOX IMVI, 0.437 µM (active). In addition, the GI50 in the assay on HCC 2998 is 1.59 µM (inactive); with OVCAR-4, 1.08 µM (active).

As to `O=C(/C=C/c1ccc2c(c1)OCO2)c1ccc(O)cc1`, the GI50 in the assay with BT-549 was 14.2 µM (inactive); in the assay on U-251 it was 13.8 µM (inactive); with SF-539, 17.4 µM (inactive); in the assay with SNB-19 it was 16.8 µM (inactive); with DU-145 it was 16.5 µM (inactive); with SNB-75, 25.1 µM (inactive). In addition, the GI50 in the assay on SK-MEL-2 is 16.9 µM (inactive); with UACC-62, 16.8 µM (inactive); with Malme-3M, 15.3 µM (inactive); in the assay with HCT-15, 13.4 µM; with CCRF-CEM, 8.07 µM (inactive); in the assay with Hs-578T it was 17.6 µM (inactive). The GI50 with NCI-H23 is 15.5 µM (inactive); in the assay with CAKI-1, 15.2 µM (inactive); in the assay on SK-MEL-5, 15.6 µM (inactive); with A498 it was 23.4 µM (inactive); with OVCAR-3, 15.5 µM (inactive); in the assay on LOX IMVI it was 11.2 µM (inactive). The GI50 in the assay with HCC 2998 is 17.9 µM (inactive); in the assay on OVCAR-4 it was 18.4 µM (inactive).

Turning to `C=C(C)C1CC2=C(C(=O)OC)C=C(O2)C(C(=C)C)[C@@H]2OC(=O)/C(=C\C1O)[C@H]2N(C)C` (stereo not given in full), the GI50 is 9.75 µM (inactive) with BT-549; 15.7 µM (inactive) in the assay with U-251; 7.4 µM (inactive) in the assay with SF-539; 1.65 µM (inactive) in the assay with SNB-19; 12.1 µM (inactive) in the assay on DU-145; 14.6 µM (inactive) in the assay with SNB-75. For the same compound, the GI50 with SK-MEL-2 is 13 µM (inactive); with UACC-62, 14.5 µM (inactive); with Malme-3M, 12.9 µM (inactive); with HCT-15 it was 5.97 µM; in the assay on CCRF-CEM, 1.6 µM (inactive); in the assay on Hs-578T, 18.9 µM (inactive). Further, the GI50 is 13.1 µM (inactive) in the assay on NCI-H23; 7.71 µM (inactive) with CAKI-1; 14.2 µM (inactive) in the assay on SK-MEL-5; 17.1 µM (inactive) in the assay on A498; 12.6 µM (inactive) with OVCAR-3; 8.09 µM (inactive) with LOX IMVI. Also, the GI50 in the assay with HCC 2998 was 14.7 µM (inactive); in the assay on OVCAR-4, 5.64 µM (inactive).

`Cc1c(-c2ccccc2)n[nH]c1NC1(C)C(=O)N(/N=C/c2ccccc2)N=C1c1ccccc1` (stereo not given): the GI50 with BT-549 is > 100 µM (inactive); in the assay on U-251, > 33.6 µM (inactive); in the assay on SF-539, > 100 µM (inactive); in the assay with SNB-19, > 100 µM (inactive); with DU-145 it was > 100 µM (inactive); with SNB-75, > 100 µM (inactive). Also, the GI50 is > 84.1 µM (inactive) with SK-MEL-2; > 100 µM (inactive) in the assay with UACC-62; > 100 µM (inactive) in the assay with Malme-3M; more than 44.5 µM in the assay with HCT-15; 25.9 µM (inactive) with CCRF-CEM; > 100 µM (inactive) in the assay on Hs-578T. The GI50 in the assay with NCI-H23 was > 100 µM (inactive); in the assay with CAKI-1, > 100 µM (inactive); with SK-MEL-5, 7.96 µM (inactive); in the assay on A498, > 83.4 µM (inactive); in the assay on OVCAR-3, > 31.6 µM (inactive); in the assay with LOX IMVI, > 100 µM (inactive). In addition, the GI50 is > 100 µM (inactive) in the assay on HCC 2998 and 31.8 µM (inactive) in the assay with OVCAR-4.

Take `C=CCc1cc(C(Cc2ccccc2)NC(C)C)cc(OCc2ccccc2)c1OCc1ccccc1` (stereo not given): the GI50 in the assay with BT-549 was 17.3 µM (inactive); in the assay on U-251, 14.3 µM (inactive); in the assay with SF-539, 15.2 µM (inactive); in the assay on SNB-19, 15.3 µM (inactive); in the assay on DU-145, 16.2 µM (inactive); in the assay with SNB-75, 13.2 µM (inactive). Besides, the GI50 in the assay on SK-MEL-2 was 18.6 µM (inactive); in the assay with UACC-62 it was 15.1 µM (inactive); in the assay on Malme-3M it was 15.5 µM (inactive); with HCT-15, 16.3 µM; in the assay on CCRF-CEM, 15.9 µM (inactive); with Hs-578T, 18 µM (inactive). Moreover, the GI50 with NCI-H23 is 18.8 µM (inactive); in the assay with CAKI-1, 15.7 µM (inactive); with SK-MEL-5 it was 16.6 µM (inactive); in the assay on A498, 15.3 µM (inactive); in the assay on OVCAR-3, 16.7 µM (inactive); with LOX IMVI, 14.8 µM (inactive). Further, the GI50 with HCC 2998 was 13.7 µM (inactive); in the assay on OVCAR-4, 17.4 µM (inactive).

`O=C(OC12CC3CC(CC(C3)C1)C2)c1ccc(NCc2cc(O)ccc2O)cc1`: the GI50 is 0.333 µM (active) in the assay on BT-549; 0.701 µM (active) in the assay on U-251; 0.467 µM (active) with SF-539; 2.31 µM (inactive) in the assay with SNB-19; 3.85 µM (inactive) in the assay with DU-145; 0.607 µM (active) in the assay with SNB-75. In addition, the GI50 is 1.35 µM (inactive) with SK-MEL-2; 1.3 µM (inactive) in the assay on UACC-62; 0.625 µM (active) in the assay on Malme-3M; 0.435 µM in the assay on HCT-15; 0.0383 µM (active) in the assay with CCRF-CEM; 0.982 µM (active) in the assay with Hs-578T. Moreover, the GI50 is 1.07 µM (active) with NCI-H23; 0.301 µM (active) in the assay on CAKI-1; 1.24 µM (inactive) with SK-MEL-5; 1.87 µM (inactive) in the assay on A498; 0.743 µM (active) in the assay on OVCAR-3; 0.859 µM (active) in the assay on LOX IMVI. In addition, the figures for the GI50 with HCC 2998 and with OVCAR-4 were 1.7 µM (inactive) and 0.433 µM (active), respectively.

(Values after ChEMBL document CHEMBL1201862, “PubChem BioAssay data set” (2004).)
